Experimental data reported in PubChem BioAssay AID1963825 (Molecular Pharmacology Branch, DTP, NCI, 2024).

Assay: Anticancer human tumor 997537-175-T-J1-PDC patient-derived colon adenocarcinoma cell line growth inhibition [POLQ]
Settings: 997537-175-T-J1-PDC complex spheroid viability, combination with POLQ inhibitors; for IC50: curve of first compound; for viability, T/C: stronger effect = lower value; active means viability on the fitted dose curve at most 10% of control; inactive means the rest
In short: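 Patient-derived tumour cells were co-cultured with HUVEC and mesenchymal stem cells as multicellular spheroids at 37 °C. They were treated with POLQ inhibitors (novobiocin, ART-558, RP6685) alone or combined with other agents. Top concentrations were at or near clinical Cmax (otherwise 10 microM; SN-38 at 1 microM), decreasing in half-log steps.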
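Further: luminescence signal used as a surrogate for viable cells; spheroids exposed to drugs for seven days before readout.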

CC(=O)O[C@H]1C(=O)[C@@]2(C)[C@H]([C@H](OC(=O)c3ccccc3)[C@]3(O)C[C@H](OC(=O)[C@H](O)[C@@H](NC(=O)c4ccccc4)c4ccccc4)C(C)=C1C3(C)C)[C@]1(OC(C)=O)CO[C@@H]1C[C@@H]2O + COC1C(OC(N)=O)C(O)C(Oc2ccc3c(O)c(NC(=O)c4ccc(O)c(CC=C(C)C)c4)c(=O)oc3c2C)OC1(C)C
0.017 µM: IC50 (second compound 10 µM)
0.0146 µM: IC50 (second compound 3.16 µM)
0.0186 µM: IC50 (second compound 0.0316 µM)
0.0826 µM: IC50 (second compound 0.316 µM)
0.0165 µM: IC50 (second compound 1 µM)
inactive: viability, T/C (second compound 0.0316 µM, first compound 0.00949 µM) 65.5% | viability, T/C (second compound 0.0316 µM, first compound 0.03 µM) 41.5% | viability, T/C (second compound 0.0316 µM, first compound 0.0949 µM) 24.5% | viability, T/C (second compound 0.0316 µM, first compound 0.3 µM) 41.6% | viability, T/C (second compound 0.0316 µM, first compound 0.949 µM) 23.9% | viability, T/C (second compound 0.0316 µM, first compound 3 µM) 42% | viability, T/C (second compound 0.1 µM, first compound 0.00949 µM) 46.6% | viability, T/C (second compound 0.1 µM, first compound 0.03 µM) 41% | viability, T/C (second compound 0.1 µM, first compound 0.0949 µM) 23.9% | viability, T/C (second compound 0.1 µM, first compound 0.3 µM) 44.9% | viability, T/C (second compound 0.1 µM, first compound 0.949 µM) 21.9% | viability, T/C (second compound 0.1 µM, first compound 3 µM) 28.1% | viability, T/C (second compound 0.316 µM, first compound 0.00949 µM) 70.7% | viability, T/C (second compound 0.316 µM, first compound 0.03 µM) 60.1% | viability, T/C (second compound 0.316 µM, first compound 0.0949 µM) 34.6% | viability, T/C (second compound 0.316 µM, first compound 0.3 µM) 50.9% | viability, T/C (second compound 0.316 µM, first compound 0.949 µM) 34% | viability, T/C (second compound 0.316 µM, first compound 3 µM) 18.2% | viability, T/C (second compound 1 µM, first compound 0.00949 µM) 66.9% | viability, T/C (second compound 1 µM, first compound 0.03 µM) 32.5% | viability, T/C (second compound 1 µM, first compound 0.0949 µM) 22.9% | viability, T/C (second compound 1 µM, first compound 0.3 µM) 29.6% | viability, T/C (second compound 1 µM, first compound 0.949 µM) 29.9% | viability, T/C (second compound 1 µM, first compound 3 µM) 35.3% | viability, T/C (second compound 3.16 µM, first compound 0.00949 µM) 61.8% | viability, T/C (second compound 3.16 µM, first compound 0.03 µM) 24.9% | viability, T/C (second compound 3.16 µM, first compound 0.0949 µM) 22.7% | viability, T/C (second compound 3.16 µM, first compound 0.3 µM) 30.7% | viability, T/C (second compound 3.16 µM, first compound 0.949 µM) 44% | viability, T/C (second compound 3.16 µM, first compound 3 µM) 28.1% | viability, T/C (second compound 10 µM, first compound 0.00949 µM) 67.2% | viability, T/C (second compound 10 µM, first compound 0.03 µM) 27% | viability, T/C (second compound 10 µM, first compound 0.0949 µM) 35.5% | viability, T/C (second compound 10 µM, first compound 0.3 µM) 40.1% | viability, T/C (second compound 10 µM, first compound 0.949 µM) 27.4% | viability, T/C (second compound 10 µM, first compound 3 µM) 35.6%
< 0.00949 µM: IC50 (second compound 0.1 µM)
